Reference: patent EP2229935A1, “Peptide derivatives or pharmaceutically acceptable salts thereof, method for producing the same, use of said derivatives and pharmaceutical composition” (Nebolsin, Vladimir Evgenievich, priority 1997, dated 1999)
Marks after values point to notes of the source that are not given here.

Legend:
Type in all cases: in vivo
Wistar male rats = assay: Blood glucose level in intact rats; conditions: for Blood glucose level (mg/dl) 2 hours after / Blood glucose level (mg/dl) 5 hours after: deprived of food; for Blood glucose level (mg/dl) 2 hours before: intragastral four days
Protocol: Experiments were carried out on Wistar male rats weighing 250-300 g. Experimental diabetes was induced with single intravenous injection of streptozotocine (the Synthez cooperative enterprise at the IMBG of the Academy of Sciences of Ukraine) at a dose 42 mg/kg to rats which were preliminarily fasting for 24 hours with access to food immediately following injection. Rats were selected for experiment 2 weeks after diabetes induction with glycemia 120-180 mg/dl. Each group included 12 animals.
The compounds were intragastrally administered to intact animals and to rats with streptozotocine diabetes for four days at daily doses 50 µg/kg and 500 µg/kg in water solution at a rate of 1 ml per 200 g of body mass. Intact animals were given the compounds III and XLIV, and rats with induced diabetes were given the compound XLIV. Check blood glucose level determination was done at the day of experiment, then animals were administered the test compounds and were deprived of food. The control animals received a respective water volume. Effect was estimated by change in blood glucose level in 2 and 5 hours. Then animals received forage and 24 hours after the last drug administration blood was again sampled for examination. 0.1 ml of blood were collected from the tail vein. Glucose level was determined using the o-toluidine method.
Glucose level was calculated in mg/dl using standard glucose solutions. Then the degree of change in glucose level in relation to the initial level was determined for each animal with its expression in percent from the initial level. Final calculation was performed for each group of animals. Each group included 10 animals.

Male guinea pigs = assay: Antigen-induced bronchospasm in actively sensitized guinea pigs; conditions: sensitized guinea pigs
Protocol: Antiasthmatic effect of the test compounds was studied using an antigen-induced bronchospasm model in actively sensitized guinea pigs according to the Andersson method [Andersson P. Antigen induced bronchial anaphylaxis in actively sensitized guinea pig. Allergy (1980), Vol. 35, pp. 65-71].
Male guinea pigs were sensitized with intramuscular injection of 0.5 ml suspension comprising 20 micrograms ovalbumin (OVA, manufactured by the Sigma company [grade III]) and 100 mg Al(OH)3 per one animal. Anaphylaxis-provoking dose 150-200 µg/kg OVA in 0.1 ml normal saline was intravenously (v. jugularis) injected on day 26 after sensibilization. Bronchospasm induction and measuring external respiration parameters were carried out according to the method described in Yu-Hong L., Barnes P., Rogers D. Inhibition of neurogenic plasma exudation and bronchoconstriction by a K+ channel activator, BRL 38227, in guinea pig airways in vivo. Europ. J. Pharmacol. (?), Vol. 239, pp.257-259]. Measurement of respiration parameters was performed using a transducer (Ugo Basel, model 7020), connected with a cannula and a recorder (Millichrome), recording breathing amplitude. […] Efficacy of compounds was determined by change in bronchospasm value.
Inthal was used as a reference drug that was administered to animals at a dose 5 µg/kg according to the same dosage regimen as the test substances were administered. The control group of animals received equivalent amount of normal saline.
Groups of animals: group 1 - control; group 2 - animals given Inthal; group 3 - animals given oral compound XLIV; group IV - animals given oral compound III; group 5 - animals given intratracheal compound III; group 6 - animals given compound XLIX, group 7 - animals given compound XXXI, group 8 - animals given compound XLVI; group 9 - animals given compound VI, group 10 - animals given compound XLVIII.

mongrel female rats = assay: Hepatoprotective activity: subchronic liver lesion (hepatitis) with CCl4; conditions: for Cholesterol level, mg/100 ml VLDL-CS / Cholesterol level, mg/100 ml LDL-CS / Cholesterol level, mg/100 ml HDL-CS / Cholesterol level, mg/100 ml total-CS / TG level, mg/100ml / ALT, nM/dl / AST, nM/dl: blood serum; for Cholesterol level, mg/100 ml VLDL-CS: TG/5; for Cholesterol level, mg/100 ml LDL-CS: calculated by formula; for ALT, nM/dl / AST, nM/dl: oral 8 days
Protocol: Hepatoprotective properties of the compounds were studied on a model of subchronic liver lesion (hepatitis) with carbon quadrichloride.
70 mongrel female rats with initial body mass 190-200 g fed a standard vivarium ration, were used in experiment. Animals were divided into 7 groups (10 rats each): • Group 1 - control one; during the first four days of experiment animals were subcutaneously injected 0.2 ml vaseline oil; • Group 2 - during the first four days animals were subcutaneously injected 50% CCl4 solution in vaseline oil at a rate of 0.1 ml per 100 g body mass; • Group 3 - Legalon in a starch gel was administered orally for 8 days at a dose 30 mg/kg against the background of CCl4 administration; […] , resepectively, was administered in a way similar to group III; […] , resepectively, was administered in a way similar to group III.
The test compounds and Legalon were administered to animals 1 hour prior to CCl4 administration. 24 hours after the last administration of the drugs, animals were decapitated.
Activity of blood serum transaminases ALT and AST was assessed using the conventional Frenkel-Rightman method [Laboratory examination methods in the clinic. Ed. by Menshikov V.V. Moscow, Meditsina publishers (1969), 302 pp.].
The published method [Rodionova L.P. Modification of blood serum trigyceride level determination method. Laboratomoye delo (Laboratory Matter) (1980), No 5, pp. 297-299] was used to determine blood serum TG level.
Blood serum LP final product MDA was determined using the published method [Korobeinikova E.N. Modification of lipid peroxydation product determination in reaction with thiobarbituric acid. Laboratomoye delo (Laboratory Matter) (1989), No 7, pp. 8-10]. Concentration of TBA-active products was calculated using regression equation: C = 0.21 + 0.26D, [formula] where C - concentration of TBA-active products (in nM MDA per 1 ml of serum), D - index D535 -D580 (in optic density units).
Total hepatic lipids were extracted using the modified Folch method [Cates M. Technology of Lipidology. Moscow, Mir publishers (1975), pp. 74-76]. Quantative content of lipid fractions was assessed with thin layer chromatography method (TLC) using the system of solvents hexane:diethyl ether:acetic acid at ratio 80:20:2. Zones of individual lipid fractions were determined using 10% alcohol solution of phosphoromolyobdenic acid which following elution were spectrophotometrically analysed at 600 nm.
Hepatic MDA level was determined using the published method [Stalnaya I.D., Garishvili T.G. Malonic dialdehyde determination method using thiobarbituric acid. In: Modem methods in biochemistry. Moscow, Meditsina publishers (1977), pp. 66-69]. MDA quantity was calculated using molar extinction coefficient value of stained trimethynic complex formed by MDA with two TBA molecules: E = 1.56 × 10^5 (cm)^-1 × M^-1 [formula]

[1] = 50 µg/kg per os, 72, 48 and 18 hours prior to bronchospasm induction
[2] = rats, CCl4 hepatitis, 0.05 µg/kg
[3] = rats, CCl4 hepatitis, 0.5 µg/kg
[4] = rats, CCl4 hepatitis, daily dose 0.05 mg/kg
[5] = rats, CCl4 hepatitis, daily dose 0.50 mg/kg
[6] = rats, CCl4 hepatitis, 0.05 mg/kg
[7] = rats, CCl4 hepatitis, 0.50 mg/kg
[8] = rats, CCl4 hepatitis, liver, 0.05 µg/kg
[9] = rats, CCl4 hepatitis, liver, 0.5 µg/kg

Row | Compound | Blood glucose level (mg/dl) 24 hours after (Wistar male rats; 50 µg/kg) | Blood glucose level (mg/dl) 24 hours after (Wistar male rats; 500 µg/kg) | Blood glucose level (mg/dl) 2 hours after (Wistar male rats; 50 µg/kg) | Blood glucose level (mg/dl) 5 hours after (Wistar male rats; 50 µg/kg) | Blood glucose level (mg/dl) 2 hours after (Wistar male rats; 500 µg/kg) | Blood glucose level (mg/dl) 5 hours after (Wistar male rats; 500 µg/kg) | Blood glucose level (mg/dl) 2 hours before (Wistar male rats; 50 µg/kg) | Blood glucose level (mg/dl) 2 hours before (Wistar male rats; 500 µg/kg) | Bronchospasm (percent of the maximum value) (Male guinea pigs; [1]) | Cholesterol level, mg/100 ml VLDL-CS (mongrel female rats; [2]) | Cholesterol level, mg/100 ml VLDL-CS (mongrel female rats; [3]) | Cholesterol level, mg/100 ml LDL-CS (mongrel female rats; [2]) | Cholesterol level, mg/100 ml LDL-CS (mongrel female rats; [3]) | Cholesterol level, mg/100 ml HDL-CS (mongrel female rats; [2]) | Cholesterol level, mg/100 ml total-CS (mongrel female rats; [2]) | TG level, mg/100ml (mongrel female rats; [2]) | Cholesterol level, mg/100 ml HDL-CS (mongrel female rats; [3]) | Cholesterol level, mg/100 ml total-CS (mongrel female rats; [3]) | TG level, mg/100ml (mongrel female rats; [3]) | ALT, nM/dl (mongrel female rats; [4]) | other results
1 | O=C(O)CCCC(=O)NCCc1c[nH]cn1 [compound III, N-GLUTARYLHISTAMINE] | 66.5 ± 3.3 mg/dL | 73.1 ± 3.4 mg/dL | 58.5 ± 5.9 mg/dL | 70.8 ± 5.5 mg/dL | 69.9 ± 2.8*^2 mg/dl | 72.6 ± 1.5*^2 mg/dl | 84.2 ± 6.1 mg/dL | 71.3 ± 4.0 mg/dL | 12.0 4.0** percent of the maximum value | 17.7 ± 2.0 mg/100 ml | 15.8 ± 1.0 p<0.05 mg/100 ml | 19.6 ± 1.4 p<0.01 mg/100 ml | 12.0 ± 0.6 mg/100 ml | 52.3 ± 2.9 mg/100 ml | 89.5 ± 3.8 mg/100 ml | 88.0 ± 10.2 mg/100ml | 59.3 ± 2.6 mg/100 ml | 87.0 ± 2.6 mg/100 ml | 78.6 ± 5.4 p<0.05 mg/100ml | 624 ± 31 nM/dl | Bronchospasm (percent of the maximum value) (Male guinea pigs; 50 µg/kg intratracheally, 15 minutes prior to bronchospasm induction): 24.6 6.4* percent of the maximum value; Lipid composition (in percent of total lipids) FCS (mongrel female rats; 5e-05 mg/kg): 20.3 ± 0.8 p<0.05% of total lipids; Lipid composition (in percent of total lipids) Phospholipids (mongrel female rats; 5e-05 mg/kg): 24.4 ± 0.7 p<0.05% of total lipids; Lipid composition (in percent of total lipids) Triglycerides (mongrel female rats; 5e-05 mg/kg): 35.5 ±1.1% of total lipids; Lipid composition (in percent of total lipids) FCS (mongrel female rats; 0.0005 mg/kg): 18.9 ± 0.7% of total lipids; Lipid composition (in percent of total lipids) Phospholipids (mongrel female rats; 0.0005 mg/kg): 23.8 ± 1.0 p<0.05% of total lipids; Lipid composition (in percent of total lipids) Triglycerides (mongrel female rats; 0.0005 mg/kg): 35.3 ± 0.7% of total lipids; AST, nM/dl (mongrel female rats; [4]): 478 ± 26 nM/dl; ALT, nM/dl (mongrel female rats; [5]): 609 ± 42 nM/dl; AST, nM/dl (mongrel female rats; [5]): 522 ± 33 nM/dl; Hepatic MDA, nM/l (mongrel female rats; [6]): 5.00 ± 0.15 p<0.05 nM/l; Serum MDA, nM/l (mongrel female rats; [6]): 5.86 ± 0.70 nM/l; Hepatic MDA, nM/l (mongrel female rats; [7]): 4.60 ± 0.52 p<0.05 nM/l; Serum MDA, nM/l (mongrel female rats; [7]): 5.77 ± 0.15 p<0.05 nM/l
2 | γ-L-glutamylhistamine [compound XLIV] | 79.9 ± 5.2 mg/dL | 83.7 ± 4.0 mg/dL | 60.8 ± 4.0 mg/dL | 64.0 ± 3.1 mg/dL | 64.8 ± 4.2 mg/dL | 65.9 ± 3.9 mg/dL | 81.2 ± 3.8 mg/dL | 80.8 ± 2.7 mg/dL | 15.6 3.2** percent of the maximum value | 13.9 ± 1.1 p<0.01 mg/100 ml | 12.4 ± 0.7 p<0.001 mg/100 ml | 21.9 ± 1.1 p<0.001 mg/100 ml | 17.1 ± 1.0 p<0.01 mg/100 ml | 49.6 ± 2.5 mg/100 ml | 85.3 ± 3.9 mg/100 ml | 68.3 ± 5.7 p<0.001 mg/100ml | 57.5 ± 5.1 mg/100 ml | 87.2 ± 6.5 mg/100 ml | 62.4 ± 3.9 p<0.001 mg/100ml | 599 ± 18 nM/dl | AST, nM/dl (mongrel female rats; [4]): 470 ± 17 nM/dl; ALT, nM/dl (mongrel female rats; [5]): 551 ± 28 nM/dl; AST, nM/dl (mongrel female rats; [5]): 475 ± 19 nM/dl; Lipid composition (in percent of total lipids) FCS (mongrel female rats; [8]): 18.0 ± 0.8% of total lipids; Lipid composition (in percent of total lipids) Phospholipids (mongrel female rats; [8]): 22.8 ± 0.9% of total lipids; Lipid composition (in percent of total lipids) Triglycerides (mongrel female rats; [8]): 39.9 ± 1.7% of total lipids; Lipid composition (in percent of total lipids) FCS (mongrel female rats; [9]): 20.6 ± 0.8 p<0.05% of total lipids; Lipid composition (in percent of total lipids) Phospholipids (mongrel female rats; [9]): 26.1 ± 0.6 p<0.001% of total lipids; Lipid composition (in percent of total lipids) Triglycerides (mongrel female rats; [9]): 33.9 ± 1.0 p<0.05% of total lipids; Hepatic MDA, nM/l (mongrel female rats; [6]): 4.47 ± 0.45 p<0.05 nM/l; Serum MDA, nM/l (mongrel female rats; [6]): 5.82 ± 0.38 p<0.05 nM/l; Hepatic MDA, nM/l (mongrel female rats; [7]): 3.51 ± 0.30 p<0.001 nM/l; Serum MDA, nM/l (mongrel female rats; [7]): 4.72 ± 0.57 p<0.01 nM/l
